In patent publication US9617310B2 (priority 2013, dated 2017):

Legend:
[1] = tested on: genotype 1b stable HCV replicon (Con1) in Huh-7-derived cells; assay: Stable subgenomic HCV replicon, genotype 1b, Renilla luciferase; type: cell-based; details: Hepatitis C virus, stable replicon genotype 1b, 72 h, read-out: EC50 1B RLUC
Procedure, shortened: (§1)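 Replicons carry hRLuc-neo, EMCV IRES and NS3-NS5B with adaptive mutations: 1a H77 P1496L/S2204I, 1b Con1 E1202G/T1280I/K1846T, 4a ED43 Q1691R/S2204I. EC50 came from non-linear regression versus DMSO and a triple-inhibitor full-inhibition control.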

[2] = tested on: genotype 3a transient HCV replicon (S52) in Huh-7-derived cells; assay: Transient-transfected HCV replicon, genotype 3a wild type; type: cell-based; details: Hepatitis C virus; transient-transfected replicon genotype 3a wild type, 72 h; read-out: EC50 3A WT
[3] = tested on: genotype 4a stable HCV replicon (ED43) in Huh-7-derived cells; assay: Stable subgenomic HCV replicon, genotype 4a, Renilla luciferase; type: cell-based; details: Hepatitis C virus, 72 h, read-out: EC50 4A RLUC
Procedure, shortened: as §1

[4] = tested on: genotype 3a stable HCV replicon (S52) in Huh-7-derived cells; assay: Stable subgenomic HCV replicon, genotype 3a, Renilla luciferase; type: cell-based; details: Hepatitis C virus, 72 h, read-out: EC50 3A RLUC
[5] = tested on: genotype 2a stable HCV replicon (JFH-1) in Huh-7-derived cells; assay: Stable subgenomic HCV replicon, genotype 2a, Renilla luciferase; type: cell-based; details: Hepatitis C virus, stable replicon genotype 2a, 72 h, read-out: EC50 2A RLUC
[6] = tested on: NS3/4a protease inhibitor resistant variant R155K in genotype 1a transient HCV replicon; assay: Transient-transfected HCV replicon, genotype 1a R155K; type: cell-based; details: Hepatitis C virus, 72 h, read-out: EC50 1A R155K
NS3 genotype 1b protease = target: T1, NS3 genotype 1b protease (Hepatitis C virus genotype 1b, UniProt Q9WMX2, E1202G); assay: Ki determination, NS3 protease genotype 1b (fluorogenic depsipeptide substrate); type: biochemical; details: NS3 protease domain genotype 1b, NS4A peptide
T1 construct: Purified NS3 protease domain (amino acids 1-181) of the genotype 1b and 3a virus were generated as above; K3 hexahistidine tag (N); rTEV protease cleavage site (N); made in house; host or cells: E. coli BL21AI
Procedure, shortened: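 NS3 protease domain (aa 1-181), 50 pM (1b) or 200 pM (3a), with 20 μM NS4A peptide, pre-incubated 1 h with inhibitor (100 nM–5 pM); 4 μM (1b) or 2 μM (3a) FRET depsipeptide substrate, room temperature, pH-unspecified HEPES buffer with 40% glycerol, 10% DMSO. Steady-state rates at 90–120 min (ex 340/em 490); Morrison fit gave Ki^app, corrected to Ki via substrate/Km.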

[7] = tested on: genotype 1a (H77) wild-type transient HCV replicon in Huh-7-derived cells; assay: Transient-transfected HCV replicon, genotype 1a wild type; type: cell-based; details: Hepatitis C virus; transient-transfected replicon genotype 1a wild type, 72 h; read-out: EC50 1A WT
[8] = tested on: NS3/4a protease inhibitor resistant variant D168A in genotype 1b transient HCV replicon; assay: Transient-transfected HCV replicon, genotype 1b D168A; type: cell-based; details: Hepatitis C virus, 72 h, read-out: EC50 1B D168A

T1 sequence (Q9WMX2 1027-1207 E1202G, other chains not shown): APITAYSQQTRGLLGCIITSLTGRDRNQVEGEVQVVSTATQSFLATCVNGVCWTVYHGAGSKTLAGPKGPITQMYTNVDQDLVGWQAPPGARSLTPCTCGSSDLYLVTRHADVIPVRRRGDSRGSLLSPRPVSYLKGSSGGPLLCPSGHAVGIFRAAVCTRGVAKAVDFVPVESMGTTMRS

CC(C)(C)[C@@H]1NC(=O)O[C@@H]2C[C@@H]3C[C@@H]3[C@H]2CCCCCc2nc3ccc(F)cc3nc2O[C@@H]2C[C@@H](C(=O)N[C@]3(C(=O)NS(=O)(=O)C4(C)CC4)C[C@H]3C(F)F)N(C2)C1=O [Example 11, (1aS,2aR,6S,9S,11R,23aR,23bS)-6-tert-butyl-N-[(1R,2R)-2-(difluoromethyl)-1-{[(1-methylcyclopropyl)sulfonyl]carbamoyl}cyclopropyl]-15-fluoro-4,7-dioxo-1a,2,2a,4,5,6,7,10,11,19,20,21,22,23,23a,23b-hexadecahydro-1H,9H-8,11-methanocyclopropa[4′,5′]cyclopenta[1′,2′:18,19][1,10,3,6]dioxadiazacyclononadecino[11,12-b]quinoxaline-9-carboxamide]
EC50 [1]: 1.3 nM | EC50 [2]: 9.7 nM | EC50 [3]: 1.2 nM | EC50 [4]: 61 nM | EC50 [5]: 2 nM | EC50 [6]: 1.9 nM | Ki (NS3 genotype 1b protease): 0.02 nM | EC50 [7]: 1.4 nM | EC50 [8]: 8.6 nM

CC(C)(C)[C@@H]1NC(=O)O[C@@H]2C[C@@H]3C[C@@H]3[C@H]2CCCCCc2nc3ccc(F)cc3nc2O[C@@H]2C[C@@H](C(=O)N[C@]3(C(=O)NS(=O)(=O)C4CC4)C[C@H]3C(F)F)N(C2)C1=O [Example 12, (1aS,2aR,6S,9S,11R,23aR,23bS)-6-tert-butyl-N-[(1R,2R)-1-[(cyclopropylsulfonyl)carbamoyl]-2-(difluoromethyl)cyclopropyl]-15-fluoro-4,7-dioxo-1a,2,2a,4,5,6,7,10,11,19,20,21,22,23,23a,23b-hexadecahydro-1H,9H-8,11-methanocyclopropa[4′,5′]cyclopenta[1′,2′:18,19][1,10,3,6]dioxadiazacyclononadecino[11,12-b]quinoxaline-9-carboxamide]
EC50 [1]: 1.3 nM | EC50 [2]: 22 nM | EC50 [3]: 1.4 nM | EC50 [4]: 89 nM | EC50 [5]: 2.6 nM | EC50 [6]: 1.9 nM | Ki (NS3 genotype 1b protease): 0.02 nM | EC50 [7]: 0.8 nM | EC50 [8]: 15.6 nM

CC(C)(C)[C@@H]1NC(=O)O[C@@H]2C[C@@H]3C[C@@H]3[C@H]2CC/C=C/C(F)(F)c2nc3ccc(C#N)cc3nc2O[C@@H]2C[C@@H](C(=O)N[C@]3(C(=O)NS(=O)(=O)C4(C)CC4)C[C@H]3C(F)F)N(C2)C1=O [Example 13, (1aS,2aR,6S,9S,11R,20E,23aR,23bS)-6-tert-butyl-15-cyano-N-[(1R,2R)-2-(difluoromethyl)-1-{[(1-methylcyclopropyl)sulfonyl]carbamoyl}cyclopropyl]-19,19-difluoro-4,7-dioxo-1a,2,2a,4,5,6,7,10,11,19,22,23,23a,23b-tetradecahydro-1H,9H-8,11-methanocyclopropa[4′,5′]cyclopenta[1′,2′18,19][1,10,3,6]dioxadiazacyclononadecino[11,12-b]quinoxaline-9-carboxamide]
EC50 [1]: 3 nM | EC50 [2]: 2.8 nM | EC50 [3]: 3.6 nM | EC50 [4]: 7.2 nM | EC50 [5]: 1.4 nM | EC50 [6]: 2 nM | Ki (NS3 genotype 1b protease): 0.02 nM | EC50 [7]: 2.8 nM | EC50 [8]: 1.1 nM

CC(C)(C)[C@@H]1NC(=O)O[C@@H]2C[C@@H]3C[C@@H]3[C@H]2CCCCC(F)(F)c2nc3ccc(C#N)cc3nc2O[C@@H]2C[C@@H](C(=O)N[C@]3(C(=O)NS(=O)(=O)C4(C)CC4)C[C@H]3C(F)F)N(C2)C1=O [Example 14, (1aS,2aR,6S,9S,11R,23aR,23bS)-6-tert-butyl-15-cyano-N-[(1R,2R)-2-(difluoromethyl)-1-{[(1-methylcyclopropyl)sulfonyl]carbamoyl}cyclopropyl]-19,19-difluoro-4,7-dioxo-1a,2,2a,4,5,6,7,10,11,19,20,21,22,23,23a,23b-hexadecahydro-1H,9H-8,11-methanocyclopropa[4′,5′]cyclopenta [1′,2′:18,19][1,10,3,6]dioxadiazacyclononadecino[11,12-b]quinoxaline-9-carboxamide]
EC50 [1]: 1.1 nM | EC50 [2]: 1.4 nM | EC50 [3]: 1.4 nM | EC50 [4]: 5 nM | EC50 [5]: 1.4 nM | EC50 [6]: 0.69 nM | Ki (NS3 genotype 1b protease): 0.01 nM | EC50 [7]: 0.9 nM | EC50 [8]: 0.65 nM

CC(C)(C)[C@@H]1NC(=O)O[C@@H]2C[C@@H]3C[C@@H]3[C@H]2CCCCC(F)(F)c2nc3ccc(OC(F)F)cc3nc2O[C@@H]2C[C@@H](C(=O)N[C@]3(C(=O)NS(=O)(=O)C4CC4)C[C@H]3C(F)F)N(C2)C1=O [Example 16, (1aS,2aR,6S,9S,11R,23aR,23bS)-6-tert-butyl-N-[(1R,2R)-1-[(cyclopropylsulfonyl)carbamoyl]-2-(difluoromethyl)cyclopropyl]-15-(difluoromethoxy)-19,19-difluoro-4,7-dioxo-1a,2,2a,4,5,6,7,10,11,19,20,21,22,23,23a,23b-hexadecahydro-1H,9H-8,11-methanocyclopropa[4′,5′]cyclopenta [1′,2′:18,19][1,10,3,6]dioxadiazacyclononadecino[11,12-b]quinoxaline-9-carboxamide]
EC50 [1]: 4.2 nM | EC50 [2]: 50 nM | EC50 [3]: 2.3 nM | EC50 [4]: 127 nM | EC50 [5]: 2.3 nM | EC50 [6]: 2 nM | Ki (NS3 genotype 1b protease): 0.03 nM | EC50 [7]: 1.8 nM | EC50 [8]: 7.9 nM

CC(C)(C)[C@@H]1NC(=O)O[C@@H]2C[C@@H]3C[C@@H]3[C@H]2CCCCC(F)(F)c2nc3ccccc3nc2O[C@@H]2C[C@@H](C(=O)N[C@]3(C(=O)NS(=O)(=O)C4(C)CC4)C[C@H]3C(F)F)N(C2)C1=O [Example 17]
EC50 [1]: 4.7 nM | EC50 [2]: 7.1 nM | EC50 [3]: 4.8 nM | EC50 [4]: 26 nM | EC50 [5]: 2.7 nM | EC50 [6]: 2.9 nM | Ki (NS3 genotype 1b protease): 0.01 nM | EC50 [7]: 3.3 nM | EC50 [8]: 2.7 nM

CC(C)(C)[C@@H]1NC(=O)O[C@@H]2C[C@@H]3C[C@@H]3[C@H]2CCCCC(F)(F)c2nc3ccccc3nc2O[C@@H]2C[C@@H](C(=O)N[C@]3(C(=O)NS(=O)(=O)C4CC4)C[C@H]3C(F)F)N(C2)C1=O [Example 18]
EC50 [1]: 4.1 nM | EC50 [2]: 4.9 nM | EC50 [3]: 4.2 nM | EC50 [4]: 18 nM | EC50 [5]: 2.6 nM | EC50 [6]: 2.6 nM | Ki (NS3 genotype 1b protease): 0.01 nM | EC50 [7]: 3.6 nM | EC50 [8]: 2.6 nM

CC(C)(C)[C@@H]1NC(=O)O[C@@H]2C[C@@H]3C[C@@H]3[C@H]2CCCCCc2nc3ccc(Cl)cc3nc2O[C@@H]2C[C@@H](C(=O)N[C@]3(C(=O)NS(=O)(=O)C4CC4)C[C@H]3C(F)F)N(C2)C1=O [Example 19, (1aS,2aR,6S,9S,11R,23aR,23bS)-6-tert-butyl-15-chloro-N-[(1R,2R)-1-[(cyclopropylsulfonyl)carbamoyl]-2-(difluoromethyl)cyclopropyl]-4,7-dioxo-1a,2,2a,4,5,6,7,10,11,19,20,21,22,23,23a, 23b-hexadecahydro-1H,9H-8,11-methanocyclopropa[4′,5′]cyclopenta[1′,2′:18,19][1,10,3,6]dioxadiazacyclononadecino[11,12-b]quinoxaline-9-carboxamide]
EC50 [1]: 1.3 nM | EC50 [2]: 17 nM | EC50 [3]: 1.8 nM | EC50 [4]: 82 nM | EC50 [5]: 3.1 nM | EC50 [6]: 1.9 nM | Ki (NS3 genotype 1b protease): 0.02 nM | EC50 [7]: 1.3 nM | EC50 [8]: 16 nM

COc1ccc2nc3c(nc2c1)O[C@@H]1C[C@@H](C(=O)N[C@]2(C(=O)NS(=O)(=O)C4(C)CC4)C[C@H]2CC(F)F)N(C1)C(=O)[C@H](C(C)(C)C)NC(=O)O[C@@H]1C[C@@H]2C[C@@H]2[C@H]1CCCCC3(F)F [Example 20, (1aS,2aR,6S,9S,11R,23aR,23bS)-6-tert-butyl-N-[(1R,2S)-2-(2,2-difluoroethyl)-1-{[(1-methylcyclopropyl)sulfonyl]carbamoyl}cyclopropyl]-19,19-difluoro-15-methoxy-4,7-dioxo-1a,2,2a,4,5,6,7,10,11,19,20,21,22,23,23a,23b-hexadecahydro-1H,9H-8,11-methanocyclopropa[4′,5′]cyclopenta[1′,2′:18,19][1,10,3,6]dioxadiazacyclononadecino[11,12-b]quinoxaline-9-carboxamide]
EC50 [1]: 5.9 nM | EC50 [2]: 12 nM | EC50 [3]: 5 nM | EC50 [4]: 46 nM | EC50 [5]: 5 nM | EC50 [6]: 5 nM | Ki (NS3 genotype 1b protease): 0.04 nM | EC50 [7]: 5.2 nM | EC50 [8]: 6.3 nM
